{"source": "patent US8735363B2", "about": "“Preparation and application of heparin silver” (priority 2005, dated 2014)", "key": {"[1]": {"test_system": "deep second degree scald wound surface", "test": "Animal model of burn (deep second degree steam scald)", "type": "in vivo, Rats", "method": "After rats were wounded, samples were taken at intervals of time. The wet weight of wound surface tissue (Ga) and the tissue dry weight (Gb) after baking at 80° C. for 72 hours were measured by weighting method. The water content of wound surface was calculated as W=(Ga−Gb)/Ga×100%, wherein W represented the degree of edema."}, "[2]": {"test_system": "hyperplastic scar wound surface", "test": "Animal model of hyperplastic scar (excised whole-thickness skin wound)", "type": "in vivo, New-Zealand rabbit", "method": "The scar tissue was subjected to Masson staining and observed under light microscope, and the thickness of dermis (Da) of wound surface after epithelization and the thickness of dermis (Db) of adjacent normal tissue were measured."}}, "data": [{"substance": "heparin silver", "values": [{"measurement": "Water content of wound surface (W)", "setting": "[1]; 8 h after wounding, W=(Ga−Gb)/Ga×100%, degree of edema", "result": "80.25 ± 2.78 (n = 6) %"}, {"measurement": "Water content of wound surface (W)", "setting": "[1]; 24 h after wounding", "result": "70.82 ± 3.56 (n = 6) %"}, {"measurement": "Hydroxyproline content of wound surface", "setting": "[1]; 1 d after wounding, chloramine T oxidization method", "result": "18.55 ± 2.13 (n = 5) ug/mL"}, {"measurement": "Hydroxyproline content of wound surface", "setting": "[1]; 2 d after wounding", "result": "20.45 ± 2.12 (n = 5) ug/mL"}, {"measurement": "Water content of wound surface (W)", "setting": "[1]; 48 h after wounding", "result": "70.16 ± 2.64 (n = 6) %"}, {"measurement": "Hydroxyproline content of wound surface", "setting": "[1]; 3 d after wounding", "result": "22.04 ± 1.35 (n = 5) ug/mL"}, {"measurement": "Water content of wound surface (W)", "setting": "[1]; 72 h after wounding", "result": "68.44 ± 1.32 (n = 5) %"}, {"measurement": "Hydroxyproline content of wound surface", "setting": "[1]; 5 d after wounding", "result": "23.27 ± 2.11 (n = 6) ug/mL"}, {"measurement": "Water content of wound surface (W)", "setting": "[1]; 5 d after wounding", "result": "67.61 ± 2.85 (n = 5) %"}, {"measurement": "Hydroxyproline content of wound surface", "setting": "[1]; 7 d after wounding", "result": "23.96 ± 2.54 (n = 6) ug/mL"}, {"measurement": "Water content of wound surface (W)", "setting": "[1]; 7 d after wounding", "result": "67.52 ± 1.36 (n = 5) %"}, {"measurement": "Hydroxyproline content of wound surface", "setting": "[1]; 10 d after wounding", "result": "26.87 ± 2.36 (n = 6) ug/mL"}, {"measurement": "Hydroxyproline content of wound surface", "setting": "[1]; 14 d after wounding", "result": "26.91 ± 2.14 (n = 6) ug/mL"}, {"measurement": "Hydroxyproline content of wound surface", "setting": "[1]; 21 d after wounding", "result": "24.05 ± 1.74 (n = 7) ug/mL"}, {"measurement": "Healing Time (d)", "setting": "[1]; rat 20% area deep second degree scald, powder dressing 0.5-1 mm changed once per day", "result": "21.5 ± 2.2 (n = 8) d"}, {"measurement": "effect in the treatment of burns and/or scalds (animal test)", "setting": "[1]; summary statement", "result": "accelerating healing speed, reducing occurrence of infection and inflammation, and improving healing quality of wound surface"}, {"measurement": "Scar index, 60 days", "setting": "[2]; 60 days, scar index = (Da−Db)/Db, dermis thickness, Masson staining", "result": "2.06 ± 0.83 (n = 6)"}, {"measurement": "Scar index, 180 days", "setting": "[2]; 180 days, scar index = (Da−Db)/Db, dermis thickness, Masson staining", "result": "1.85 ± 0.52 (n = 6)"}, {"measurement": "Healing time of wound surface (days)", "setting": "[2]; rabbit 2 cm×5 cm excision wound, dressing with powder changed once per week, healed = scab less than 5% of wound area", "result": "21.4 ± 2.16 (n = 6) days"}]}]}
